Our source for the EC50 values is patent US11261186B2, “Biaryl derivative as GPR120 agonist” (LG CHEM, LTD., priority 2014, dated 2022).

pEC50: −log10 of the molar value.

The target of this experiment is T1, hGPR120 (Homo sapiens, UniProt Q5NUL3).
T1 construct: expressed in transfected cells; host or cells: CHO-K1
T1 sequence (Q5NUL3 1-361): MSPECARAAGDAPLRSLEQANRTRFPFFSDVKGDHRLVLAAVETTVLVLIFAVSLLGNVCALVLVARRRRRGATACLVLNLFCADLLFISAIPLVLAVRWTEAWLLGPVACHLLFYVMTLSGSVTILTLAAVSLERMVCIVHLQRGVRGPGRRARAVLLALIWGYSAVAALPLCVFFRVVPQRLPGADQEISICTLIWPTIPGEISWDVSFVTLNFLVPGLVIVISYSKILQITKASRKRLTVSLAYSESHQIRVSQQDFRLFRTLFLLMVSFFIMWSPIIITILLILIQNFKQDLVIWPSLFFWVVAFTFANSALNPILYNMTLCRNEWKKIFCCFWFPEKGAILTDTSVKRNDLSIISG
The experiment can be described thus: Measurement of Activity of GPR120 Agonist (Cell-Based Assay), Calcium 5 dye fluorescence. The conditions noted are these: CHO-K1 cells expressing Ga16 and hGPR120. The method, then:
CHO-K1 cells expressing Ga16 and hGPR120 were dispensed into each well of a 96-well plate (3×10^4 cells/100 μl/well) and then incubated in 5% CO2, 37° C. incubator for 18 hours. Each well was treated with 100 μl of Calcium 5 dye (Molecular Devices) solution including 2% DMSO and then incubated in 5% CO2, 37° C. incubator for 1 hour. Serially diluted GPR120 agonists were prepared to a final concentration of 0.5% DMSO in a 96-well plate. Each well was treated with 50 μl of the agonist compounds using Plexstation II, and then fluorescence was measured at Ex 485 nm and Em 525 nm.
Fluorescence increased by the serially diluted GPR120 agonists is calculated as a relative percent (%) value based on the fluorescence represented by the treatment of 1% DMSO only. […] The calculation of measurement was carried out by using statistical software (Prizm).
Activity is denoted based on the following criteria: […]
Consider `Oc1cc(CCOc2c(F)cc(-c3cccnc3OC3CCCC3)cc2F)on1` [Example 89, 5-[2-[4-[2-(cyclopentoxy)-3-pyridyl]-2,6-difluoro-phenoxy]ethyl]isoxazol-3-ol], for which the negative-log EC50 (pEC50) is above 6.70.

Consider `Oc1cc(CCNc2c(F)cc(-c3cccnc3OC3CCCC3)cc2F)on1` [Example 90, 5-[2-[4-[2-(cyclopentoxy)-3-pyridyl]-2,6-difluoro-anilino]ethyl]isoxazol-3-ol], for which the pEC50 is 5.70 to 6.70.

Turning to `O=C(O)Cc1cnn(-c2ccc(-c3cccnc3SC3CCC3)cc2)c1` [Example 93, 2-[1-[4-(2-cyclobutylsulfanyl-3-pyridyl)phenyl]pyrazol-4-yl]acetic acid], the negative logarithm of the EC50 (pEC50) is 4.70 to 5.70.

For the compound `O=C(O)CCCCNc1c(F)cc(-c2cccnc2OC2CCCC2)cc1F` [Example 94, 5-[4-[2-(cyclopentoxy)-3-pyridyl]-2,6-difluoro-anilino]pentanoic acid], the pEC50 is above 6.70.

On to `CCN(CCCCC(=O)O)c1c(F)cc(-c2cccnc2OC2CCCC2)cc1F` [Example 95, 5-[4-[2-(cyclopentoxy)-3-pyridyl]-N-ethyl-2,6-difluoro-anilino]pentanoic acid], for which the pEC50 is 5.70 to 6.70.

With `CC(C)Sc1cccc(-c2cc(F)c(NCCCCC(=O)O)c(F)c2)n1` [Example 96, 5-[2,6-difluoro-4-(6-isopropylsulfanyl-2-pyridyl)anilino]pentanoic acid], the pEC50 is 5.70 to 6.70.

In the case of `CC(C)Sc1ncccc1-c1cc(F)c(NCCCCC(=O)O)c(F)c1` [Example 97, 5-[2,6-difluoro-4-(2-isopropylsulfanyl-3-pyridyl)anilino]pentanoic acid], the negative logarithm of the EC50 (pEC50) is above 6.70.

`O=C(O)CCCCNc1c(F)cc(-c2cccc(OCC3CC3)n2)cc1F` [Example 98, 5-[4-[6-(cyclopropylmethoxy)-2-pyridyl]-2,6-difluoro-anilino]pentanoic acid]: the negative logarithm of the EC50 (pEC50) was above 6.70.

As to `O=C(O)CCCCNc1c(F)cc(-c2cccnc2OCC2CC2)cc1F` [Example 99, 5-[4-[2-(cyclopropylmethoxy)-3-pyridyl]-2,6-difluoro-anilino]pentanoic acid], the negative-log EC50 (pEC50) was above 6.70.

Consider `O=C(O)CC1CCN(c2c(F)cc(-c3cccnc3SC3CCCC3)cc2F)CC1` [Example 100, 2-[1-[4-(2-cyclopentylsulfanyl-3-pyridyl)-2,6-difluoro-phenyl]-4-piperidyl]acetic acid], for which the pEC50 was above 6.70.

For `CN(CCCCC(=O)O)c1c(F)cc(-c2cccc(OCC3CC3)n2)cc1F` [Example 101, 5-[4-[6-(cyclopropylmethoxy)-2-pyridyl]-2,6-difluoro-N-methyl-anilino]pentanoic acid], the pEC50 is above 6.70.

As for `O=C(O)CC1CCN(c2c(F)cc(-c3cccnc3OC3CCCC3)cc2F)CC1` [Example 102, 2-[1-[4-[2-(cyclopentoxy)-3-pyridyl]-2,6-difluoro-phenyl]-4-piperidyl]acetic acid], the pEC50 was above 6.70.

With `O=C(O)CC1CCN(c2c(F)cc(-c3cccnc3OC3CCOC3)cc2F)CC1` (centres unmarked) [Example 103, 2-[1-[2,6-difluoro-4-(2-tetrahydrofuran-3-yloxy-3-pyridyl)phenyl]-4-piperidyl]acetic acid], the negative logarithm of the EC50 (pEC50) was 5.70 to 6.70.

With `CC(C)Sc1ncccc1-c1cc(F)c(N2CCC(CC(=O)O)CC2)c(F)c1` [Example 104, 2-[1-[2,6-difluoro-4-(2-isopropylsulfanyl-3-pyridyl)phenyl]-4-piperidyl]acetic acid], the pEC50 was above 6.70.

For `CC(C)Sc1cccc(-c2cc(F)c(N3CCC(CC(=O)O)CC3)c(F)c2)n1` [Example 105, 2-[1-[2,6-difluoro-4-(6-isopropylsulfanyl-2-pyridyl)phenyl]-4-piperidyl]acetic acid], the pEC50 is above 6.70.

On to `O=C(O)CC1CCN(c2c(F)cc(-c3cccc(OCC4CC4)n3)cc2F)CC1` [Example 106, 2-[1-[4-[6-(cyclopropylmethoxy)-2-pyridyl]-2,6-difluoro-phenyl]-4-piperidyl]acetic acid], for which the negative-log EC50 (pEC50) is above 6.70.

Regarding `CC(C)Sc1ncccc1-c1cc(F)c(N2CCCC(CC(=O)O)C2)c(F)c1` (centres unmarked) [Example 108, 2-[1-[2,6-difluoro-4-(2-isopropylsulfanyl-3-pyridyl)phenyl]-3-piperidyl]acetic acid], the pEC50 is 4.70 to 5.70.

Take `CC(C)Sc1ncccc1-c1cc(F)c(N2CC(CC(=O)O)C2)c(F)c1` [Example 109, 2-[1-[2,6-difluoro-4-(2-isopropylsulfanyl-3-pyridyl)phenyl]azetidin-3-yl]acetic acid]: the pEC50 was above 6.70.

With `CC(C)Sc1ncccc1-c1cc(F)c(N2CCC3(CC2)CC3C(=O)O)c(F)c1` (centres unmarked) [Example 110, 6-[2,6-difluoro-4-(2-isopropylsulfanyl-3-pyridyl)phenyl]-6-azaspiro[2.5]octan-2-carboxylic acid], the negative-log EC50 (pEC50) was 5.70 to 6.70.

As to `CC(C)Sc1cccc(-c2cc(F)c(N3CCC4(CC3)CC4C(=O)O)c(F)c2)n1` (centres unmarked) [Example 111, 6-[2,6-difluoro-4-(6-isopropylsulfanyl-2-pyridyl)phenyl]-6-azaspiro[2.5]octan-2-carboxylic acid], the negative-log EC50 (pEC50) was 4.70 to 5.70.

Take `O=C(O)CC1CN(c2c(F)cc(-c3cccnc3SC3CCCC3)cc2F)C1` [Example 112, 2-[1-[4-(2-cyclopentylsulfanyl-3-pyridyl)-2,6-difluoro-phenyl]azetidin-3-yl]acetic acid]: the pEC50 is above 6.70.

In the case of `O=C(O)CC1CN(c2c(F)cc(-c3cccnc3OC3CCCC3)cc2F)C1` [Example 113, 2-[1-[4-[2-(cyclopentoxy)-3-pyridyl]-2,6-difluoro-phenyl]azetidin-3-yl]acetic acid], the pEC50 was above 6.70.

As to `CC(C)Sc1cccc(-c2cc(F)c(N3CC(CC(=O)O)C3)c(F)c2)n1` [Example 114, 2-[1-[2,6-difluoro-4-(6-isopropylsulfanyl-2-pyridyl)phenyl]azetidin-3-yl]acetic acid], the pEC50 is above 6.70.

Consider `CC(C)Oc1cccc(-c2cc(F)c(N3CC(CC(=O)O)C3)c(F)c2)n1` [Example 115, 2-[1-[2,6-difluoro-4-(6-isopropoxy-2-pyridyl)phenyl]azetidin-3-yl]acetic acid], for which the negative logarithm of the EC50 (pEC50) was above 6.70.

Turning to `O=C(O)CC1CN(c2c(F)cc(-c3cccc(OC4CCCC4)n3)cc2F)C1` [Example 116, 2-[1-[4-[6-(cyclopentoxy)-2-pyridyl]-2,6-difluoro-phenyl]azetidin-3-yl]acetic acid], the pEC50 was above 6.70.

As for `CCCSc1ncccc1-c1cc(F)c(N2CCC(CC(=O)O)CC2)c(F)c1` [Example 117, 2-[1-[2,6-difluoro-4-(2-propylsulfanyl-3-pyridyl)phenyl]-4-piperidyl]acetic acid], the pEC50 is above 6.70.

`O=C(O)CC1CCN(c2c(F)cc(-c3cccnc3SC3CCC3)cc2F)CC1` [Example 118, 2-[1-[4-(2-cyclobutylsulfanyl-3-pyridyl)-2,6-difluoro-phenyl]-4-piperidyl]acetic acid]: the pEC50 is 5.70 to 6.70.

As for `CC(C)Oc1ncccc1-c1cc(F)c(N2CCC(CC(=O)O)CC2)c(F)c1` [Example 119, 2-[1-[2,6-difluoro-4-(2-isopropoxy-3-pyridyl)phenyl]-4-piperidyl]acetic acid], the pEC50 was 5.70 to 6.70.

On to `CCCOc1ncccc1-c1cc(F)c(N2CCC(CC(=O)O)CC2)c(F)c1` [Example 120, 2-[1-[2,6-difluoro-4-(2-propoxy-3-pyridyl)phenyl]-4-piperidyl]acetic acid], for which the pEC50 is 5.70 to 6.70.

As to `O=C(O)CC1CCN(c2c(F)cc(-c3cccnc3OCC3CC3)cc2F)CC1` [Example 121, 2-[1-[4-[2-(cyclopropylmethoxy)-3-pyridyl]-2,6-difluoro-phenyl]-4-piperidyl]acetic acid], the pEC50 is above 6.70.

With `CC(C)Sc1ncccc1-c1cc(F)c(-n2cc(CC(=O)O)cn2)c(F)c1` [Example 122, 2-[1-[2,6-difluoro-4-(2-isopropylsulfanyl-3-pyridyl)phenyl]pyrazol-4-yl]acetic acid], the negative logarithm of the EC50 (pEC50) is 4.70 to 5.70.

On to `CC(C)Sc1cccc(-c2cc(F)c(-n3cc(CC(=O)O)cn3)c(F)c2)n1` [Example 123, 2-[1-[2,6-difluoro-4-(6-isopropylsulfanyl-2-pyridyl)phenyl]pyrazol-4-yl]acetic acid], for which the pEC50 is 5.70 to 6.70.

Regarding `CC(C)Sc1ncccc1-c1cc(F)c(N2CCC(CC(=O)O)C2)c(F)c1` (centres unmarked) [Example 124, 2-[1-[2,6-difluoro-4-(2-isopropylsulfanyl-3-pyridyl)phenyl]pyrrolidin-3-yl]acetic acid], the pEC50 is above 6.70.

Take `CC(C)Sc1cccc(-c2cc(F)c(N3CCC(CC(=O)O)C3)c(F)c2)n1` (centres unmarked) [Example 125, 2-[1-[2,6-difluoro-4-(6-isopropylsulfanyl-2-pyridyl)phenyl]pyrrolidin-3-yl]acetic acid]: the pEC50 was above 6.70.

As to `CC(C)Sc1ncccc1-c1cc(F)c(N2CCC(CCC(=O)O)CC2)c(F)c1` [Example 126, 3-[1-[2,6-difluoro-4-(2-isopropylsulfanyl-3-pyridyl)phenyl]-4-piperidyl]propanoic acid], the pEC50 is above 6.70.
